Data reported in ChEMBL document CHEMBL2417358, “Design, stereoselective synthesis, and biological evaluation of novel tri-cyclic compounds as inhibitor of apoptosis proteins (IAP) antagonists” (Bioorg Med Chem, 2013).

Tests used:
[1] = system: MDA-MB-231; assay: Growth inhibition of human MDA-MB-231 cells after 72 hrs by luminescence assay; format: functional; conditions: MDA-MB-231, 72 h
[2] = Metabolic stability in human liver microsomes assessed as compound remaining at 1 umol/L after 15 to 30 mins by LC/MS/MS analysis; format: ADME, Microsome; conditions: read-out: Stability
[3] = Metabolic stability in mouse liver microsomes assessed as compound remaining at 1 umol/L after 15 to 30 mins by LC/MS/MS analysis; format: ADME, Microsome; conditions: read-out: Stability
[4] = system: Mus musculus; assay: Upregulation of TNFalpha mRNA level in human MDA-MB-231 cells expressing luciferase xenografted in po dosed mouse after 6 hrs by RT-PCR analysis; format: functional, organism-based

SMILES	GI50 [1]	microsomal CLint at 1 µM [2]	microsomal CLint at 1 µM [3]	Activity [4]
CN[C@@H](C)C(=O)N[C@H](C(=O)N1C[C@H]2C[C@H]3C[C@H]3N2C[C@H]1C(=O)N[C@@H]1CCOc2ccccc21)C1CCCCC1	83 nM	39 µL/min/mg	45 µL/min/mg	–
CN[C@@H](C)C(=O)N[C@H](C(=O)N1C[C@H]2C[C@@H]3C[C@@H]3N2C[C@H]1C(=O)N[C@@H]1CCOc2ccccc21)C1CCCCC1	7.8 nM	72 µL/min/mg	96 µL/min/mg	Dose-dependent effect
CN[C@@H](C)C(=O)N[C@H](C(=O)N1C[C@H]2CCCN2C[C@H]1C(=O)N[C@@H]1CCOc2ccccc21)C1CCCCC1	5.7 nM	–	–	–
